Assay results: paper PMC5506657, “Improvement in phosphate acquisition and utilization by a secretory purple acid phosphatase (OsPAP21b) in rice” (Plant Biotechnology Journal, 2017)

Columns and labels:
[1] = tested on: OsPAP21b; experiment: released Pi by vanadomolybdate; Lineweaver-Burk; type: biochemical, Oryza sativa; conditions: 5 mM MgCl2, 50 mM sodium acetate pH 5.0, 37 °C; 0.1-100 mM substrate
[2] = tested on: OsPAP21b; conditions: 10 mM pNPP; 0 to 25 mM NaH2PO4; 5 mM MgCl2, 50 mM sodium acetate pH 5.0, 37 °C; reaction product as inhibitor

Km [1] [µM] | IC50 [2] [mM] | SMILES
77 ± 4 |  | Nc1ncnc2c1ncn2[C@@H]1O[C@H](COP(=O)(O)OP(=O)(O)O)[C@@H](O)[C@H]1O [ADP]
90 ± 10 |  | O=[N+]([O-])c1ccc(OP(=O)(O)O)cc1 [pNPP]
 | 5.09 ± 1.34 | O=P(O)(O)O [Pi]
